This test has as its target Human immunodeficiency virus type 1 protease (Human immunodeficiency virus 1, UniProt Q72874). Put plainly: Inhibitory activity was determined against HIV type 1 protease.

In the case of `CC(C)[C@H](NC(=O)[C@H](NCc1ccc(Cl)cc1)[C@H](O)[C@@H](N)Cc1ccccc1)C(=O)NCc1nc2ccccc2[nH]1`, the affinity, expressed as Ki, was 182 nM.

For `CC(C)(C)OC(=O)N[C@@H](Cc1ccccc1)[C@@H](O)[C@@H](NCc1ccc(CNC(=O)CCc2nc3ccccc3[nH]2)cc1)C(=O)NC(CO)c1ccccc1` (stereo not given in full), the Ki (usually the equilibrium dissociation constant of an inhibitor or competing ligand from its target) is 2510 nM.

On to `COc1ccc(CN[C@@H](C(=O)N[C@@H]2c3ccccc3CC2O)[C@H](O)[C@H](Cc2ccccc2)NC(=O)[C@@H](NC(=O)OCc2ccccc2)C(C)(C)C)cc1` (stereo not given in full), for which the Ki is 9.55 nM.

Molecule `CCCCCCCCOC(=O)N[C@H](C(=O)N[C@@H](Cc1ccccc1)[C@@H](O)[C@@H](NCc1ccccc1)C(=O)N[C@H](C(=O)NCc1ccccc1)C(C)C)C(C)(C)C` showed a Ki of 14.1 nM. The Ki values of the last two molecules are within 1.5-fold of each other.

For the molecule `COc1ccc(CN[C@@H](C(=O)N[C@H]2c3ccccc3CC2O)[C@H](O)[C@H](Cc2ccccc2)NC(=O)[C@@H](NC(=O)OCc2ccccc2)C(C)(C)C)cc1` (stereo not given in full), the Ki is 1820 nM.

In turn, `CC(C)[C@H](NC(=O)OCc1ccccc1)C(=O)N[C@@H](Cc1ccccc1)[C@@H](O)[C@@H](NCc1ccccc1)C(=O)N[C@H](C(=O)NCc1ccccc1)C(C)(C)C` gave a Ki of 20 nM.

In turn, `COc1ccc(CN[C@@H](C(=O)N[C@H](C(=O)NCc2nc3ccccc3[nH]2)C(C)C)[C@H](O)[C@@H](N)Cc2ccccc2)cc1` had a Ki of 229 nM.

In turn, `CC(C)[C@H](NC(=O)OCc1ccccc1)C(=O)N[C@@H](Cc1ccccc1)[C@@H](O)[C@@H](Nc1ccc(-c2ccccc2)cc1)C(=O)N[C@H](C(=O)NCc1nc2ccccc2[nH]1)C(C)C` gave a Ki of 8.91 nM. Against the preceding molecule, the Ki is about 26-fold lower.

Regarding `COc1ccc(CN[C@@H](C(=O)N[C@H](C(=O)NCCc2ccc(O)cc2)C(C)C)[C@H](O)[C@H](Cc2ccccc2)NC(=O)[C@@H](NC(=O)OCc2ccccc2)C(C)C)cc1`, affinity was put at a Ki of 18.2 nM.

The molecule `CC(=O)NCc1ccc(CN[C@@H](C(=O)N[C@H]2c3ccccc3CC2O)[C@H](O)[C@H](Cc2ccccc2)NC(=O)OC(C)(C)C)cc1` (stereo not given in full) gave a Ki of 70.8 nM.

`COC(=O)CC[C@H](NC(=O)[C@H](NCc1ccc(OC)cc1)[C@H](O)[C@H](Cc1ccccc1)NC(=O)[C@@H](NC(=O)OCc1ccccc1)C(C)C)C(=O)NCc1ccc(OC)cc1O`: the affinity, expressed as Ki, was 6.03 nM.

`CC(C)[C@H](NC(=O)OCc1ccccc1)C(=O)N[C@@H](Cc1ccccc1)[C@@H](O)[C@@H](NC[C@H](O)c1ccccc1)C(=O)N[C@H](C(=O)NCc1nc2ccccc2[nH]1)C(C)C` had a Ki of 28.2 nM.

`COc1ccc(CN[C@@H](C(=O)N[C@H](C(=O)NCn2nnc3ccccc32)C(C)C)[C@H](O)[C@H](Cc2ccccc2)NC(=O)[C@@H](NC(=O)OCc2ccccc2)C(C)C)cc1`: the affinity, expressed as Ki, was 15.1 nM.

The molecule `CC(C)[C@H](NC(=O)CCCCCNC(=O)OC(C)(C)C)C(=O)N[C@@H](Cc1ccccc1)[C@@H](O)[C@@H](NCc1ccccc1)C(=O)N[C@H](C(=O)NCc1ccccc1)C(C)C` showed a Ki of 20.9 nM.

The molecule `COc1ccc(CN[C@@H](C(=O)N[C@H](C(=O)N[C@H](CO)c2ccccc2)C(C)C)[C@H](O)[C@H](Cc2ccccc2)NC(=O)[C@@H](NC(=O)OCc2ccccc2)C(C)C)cc1` had a Ki of 14.1 nM.

In turn, `COc1ccc(CN[C@@H](C(=O)N[C@H](C(=O)NCc2ccc(N3NC=CS3)cc2)C(C)C)[C@H](O)[C@H](Cc2ccccc2)NC(=O)[C@@H](NC(=O)OCc2ccccc2)C(C)C)cc1` had a Ki of 14.1 nM.

For `CCOC(=O)[C@H](NCc1ccc(CNC(=O)c2ccccc2)cc1)[C@H](O)[C@H](Cc1ccccc1)NC(=O)[C@@H](NC(=O)OCc1ccccc1)C(C)C`, the Ki was 933 nM.

The molecule `COc1ccc(CN[C@@H](C(=O)N[C@H]2c3ccccc3CC2O)[C@H](O)[C@H](Cc2ccccc2)NC(=O)[C@@H](NC(=O)OC(C)(C)C)C(C)(C)C)cc1` (stereo not given in full) had a Ki of 209 nM.

For `CC(C)(C)[C@H](NC(=O)OCc1ccccc1)C(=O)N[C@@H](Cc1ccccc1)[C@@H](O)[C@@H](NCc1ccc(CNC(=O)Nc2ccccc2)cc1)C(=O)N[C@H]1c2ccccc2CC1O` (stereo not given in full), the Ki was 3.31 nM.

With `CC(C)[C@H](N)C(=O)N[C@@H](Cc1ccccc1)[C@@H](O)[C@@H](NCc1ccccc1)C(=O)N[C@H](C(=O)NCc1ccccc1)C(C)C`, the affinity corresponds to a Ki of 741 nM.

The values are drawn from ChEMBL document CHEMBL1128211, “3D-quantitative structure-activity relationships of human immunodeficiency virus type-1 proteinase inhibitors: comparative molecular field analysis of 2-heterosubstituted statine derivatives-implications for the design of novel inhibitors” (J Med Chem, 1995).
